Read-outs that look alike come from different tables or passages of the source.

For orientation: IC50 means the concentration needed to halve the response being measured. A low value points to greater potency.

One assay deals with T1, FGFR2 (N549H) (Homo sapiens, UniProt P21802, N549H).
T1 construct: purchased Millipore 14-742
The assay is described as follows: fluorescent ELISA assay for inhibitors of FGFR2 kinase. Type of assay: biochemical. The settings on record: Pyk2 peptide substrate, 60 minutes. How it is done: The enzymatic assays described herein are conducted according to the following procedures from commercially available reagents. In one non-limiting example, a fluorescent ELISA assay is used to identify and characterize inhibitors of FGFR2 kinase as described herein. This heterogeneous assay utilizes a biotinylated peptide with a tyrosine motif as a substrate and an anti-phospho-tyrosine antibody to measure phosphorylation of the substrate. The reaction is initiated by adding the test compound, 37 μM Pyk2 substrate (Midwest Biotech, Cat. #MBT2383), 12.5 μM ATP (Roche, Cat. #11 140 965 001) and 0.5 μM FGFR2 enzyme (Millipore, Cat. #14-742) sequentially to a non-binding polypropylene V-well plate. All reagents are in an assay buffer consisting of: 50 mM Tris-HCL, 0.02 mg/ml BSA, 10 mM MgCl2, 0.1 mM Na3VO4, 1 mM EGTA, 75 μM ATP, 0.01% NP-40, 2 mM DTT and 10% glycerol. The reaction is incubated for 60 minutes. As the reaction proceeds, FGFR2 phosphorylates tyrosines in the peptide. The reaction mixture is then moved to a blocked streptavidin-coated Nunc Maxisorb plate (coated with 100 ng streptavidin from Pierce (Cat. #15-124) per well), allowing for the capture of the biotinylated peptide. Peptides are captured for 30 minutes at room temperature, the phosphorylation of peptides continues during this phase. The reaction is stopped by washing the streptavidin-coated plate 6 times with TBST. Phosphorylated peptide is detected by adding anti-phospho-tyrosine antibody (Cell Signaling, Cat. #9411, diluted 1:3000) to the streptavidin-coated plate. Unbound anti-phospho-tyrosine antibody is removed by washing the streptavidin-coated plate 6 times with TBST. Secondary detection is performed using alkaline phosphatase tagged goat anti-mouse antibody (Pierce, Cat. #31320, diluted 1:4000) for one hour. Unbound secondary antibody is removed by washing the streptavidin-coated plate 6 times with TBST. The fluorescent readout is initiated by adding to the streptavidin-coated plate Promega Attophos substrate (Promega, Cat. #S1000, dilution=6 mg/10 ml), which, when dephosphorylated by alkaline phosphatase, emits a fluorescent signal of 595 nm in wavelength when excited by a signal of 400 nm in wavelength. The reading of the 595 nm signal is done on the Perkin Elmer Envision system. Compounds which prevent FGFR2 from phosphorylating the peptide result in a lower fluorescent signal. The 595 nm fluorescent signal is directly proportional to the activity of FGFR2. Thus, the inhibition of FGFR2 by compounds is monitored by the decrease in the 595 nm fluorescent signal.

In another assay the test system is cancer cells. The assay is described as follows: MTS cell growth inhibition assay (72 hours). Type of assay: cell-based. The method, boiled down: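 Cells in DMEM with 1% FBS, seeded 18 h, then compound-treated 72 h at 37 °C. Viability by MTS/PMS for 4 h, formazan absorbance at 492 nm; IC50 taken as concentration giving 50% absorbance drop, activity banded by percent inhibition.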

Setting [1] is: Homo sapiens, DLD-1, 72 h, DLD-1 cells, read-out: DLD-1 MTS 72 hr at 10 μM.
The mark [2] stands for this setting: Homo sapiens, KATO III, 72 h, KATO III cells, read-out: KATO III MTS 72 hr at 10 μM.
Setting [3] is: Homo sapiens, MDA-MB-231, 72 h, MDA-MB-231 cells, read-out: MDA-MB-231 MTS 72 hr at 10 μM.
Where [4] appears, read: Homo sapiens, NCI-H1299, 72 h, NCI-H1299 cells, read-out: NCI-H1299 MTS 72 hr at 10 μM.
Setting [5] is: PaCa-2, 72 h, PACA-2 cells, read-out: PACA-2 MTS 72 hr at 10 μM.

T1 sequence (P21802 22-821 N549H): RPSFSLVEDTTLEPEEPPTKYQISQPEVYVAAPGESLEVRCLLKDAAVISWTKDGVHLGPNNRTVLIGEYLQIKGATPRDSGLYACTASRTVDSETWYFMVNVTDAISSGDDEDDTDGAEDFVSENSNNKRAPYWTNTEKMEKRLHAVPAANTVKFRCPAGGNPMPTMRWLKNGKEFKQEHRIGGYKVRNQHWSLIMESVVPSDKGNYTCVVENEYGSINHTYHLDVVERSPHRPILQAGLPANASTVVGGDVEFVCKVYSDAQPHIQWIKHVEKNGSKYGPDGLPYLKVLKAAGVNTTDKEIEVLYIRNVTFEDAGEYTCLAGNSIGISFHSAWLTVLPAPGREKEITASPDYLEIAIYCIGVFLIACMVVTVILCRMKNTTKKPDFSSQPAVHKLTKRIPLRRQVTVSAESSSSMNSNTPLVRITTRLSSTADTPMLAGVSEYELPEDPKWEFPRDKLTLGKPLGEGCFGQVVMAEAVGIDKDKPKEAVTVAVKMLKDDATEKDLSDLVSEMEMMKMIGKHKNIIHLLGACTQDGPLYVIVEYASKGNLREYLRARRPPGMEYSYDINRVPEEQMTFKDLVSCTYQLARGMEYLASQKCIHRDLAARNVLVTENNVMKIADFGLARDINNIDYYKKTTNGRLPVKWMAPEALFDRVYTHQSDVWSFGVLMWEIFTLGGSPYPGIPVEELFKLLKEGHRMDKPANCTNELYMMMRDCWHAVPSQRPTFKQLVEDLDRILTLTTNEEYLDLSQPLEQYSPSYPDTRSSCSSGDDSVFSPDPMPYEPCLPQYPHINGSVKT

Regarding `Nc1nc(NC2Cc3ccccc3N(CCc3ccc(Cl)cc3Cl)C2)c2cn[nH]c2n1` (stereo not shown) [Compound 3, N^4-(1-(2-(2,4-dichlorophenyl)ethyl)-1,2,3,4-tetrahydroquinolin-3-yl)-1H-pyrazolo[3,4-d]pyrimidine-4,6-diamine], half-maximal inhibition against FGFR2 (N549H) (IC50) required 7830 nM. The inhibition at 10 µM in the assay with cancer cells (setting [1]), in the assay on cancer cells (setting [2]), in the assay with cancer cells (setting [3]), with cancer cells (setting [4]) and in the assay on cancer cells (setting [5]) was > 79% in each case.
In turn, `Nc1nc(NC2Cc3ccccc3N(Cc3ccc(F)cc3)C2)c2cn[nH]c2n1` (stereo not shown) [Compound 6, N^4-(1-(4-fluorobenzyl)-1,2,3,4-tetrahydroquinolin-3-yl)-1H-pyrazolo[3,4-d]pyrimidine-4,6-diamine] yielded a half-maximal inhibitory concentration (IC50) at FGFR2 (N549H) of 900 nM. In addition, the inhibition at 10 µM in the assay on cancer cells (setting [1]), with cancer cells (setting [2]), in the assay with cancer cells (setting [3]), with cancer cells (setting [4]) and with cancer cells (setting [5]) was > 79% in each case.
`Nc1nc(NC2Cc3ccccc3N(Cc3ccc(Cl)c(Cl)c3)C2)c2cn[nH]c2n1` (stereo not shown) [Compound 7, N^4-(1-(3,4-dichlorobenzyl)-1,2,3,4-tetrahydroquinolin-3-yl)-1H-pyrazolo[3,4-d]pyrimidine-4,6-diamine]: half-maximal inhibition at FGFR2 (N549H) (IC50) required 3970 nM. Moreover, the inhibition at 10 µM in the assay on cancer cells (setting [1]), with cancer cells (setting [2]), with cancer cells (setting [3]), in the assay with cancer cells (setting [4]) and in the assay on cancer cells (setting [5]) was > 79% each time.
On FGFR2 (N549H), `CN(c1nc(N)nc2[nH]ncc12)C1Cc2ccccc2N(Cc2ccc(Cl)c(Cl)c2)C1` (stereo not shown) [Compound 10, N^4-(1-(3,4-dichlorobenzyl)-1,2,3,4-tetrahydroquinolin-3-yl)-N^4-methyl-1H-pyrazolo[3,4-d]pyrimidine-4,6-diamine] displayed a half-maximal inhibitory concentration (IC50) of 1550 nM. Also, the inhibition at 10 µM in the assay with cancer cells (setting [1]) was < 50%; in the assay on cancer cells (setting [2]) it was 50 to 79%; in the assay on cancer cells (setting [3]), < 50%; in the assay with cancer cells (setting [4]), < 50%; with cancer cells (setting [5]), < 50%.
With `Cc1noc(C)c1S(=O)(=O)N1CC(Nc2nc(N)nc3[nH]ncc23)Cc2ccccc21` (stereo not shown) [Compound 15, N4-(1-(3,5-dimethylisoxazol-4-ylsulfonyl)-1,2,3,4-tetrahydroquinolin-3-yl)-1H-pyrazolo[3,4-d]pyrimidine-4,6-diamine], the IC50 against FGFR2 (N549H) was > 30000 nM. Besides, the inhibition at 10 µM in the assay on cancer cells (setting [1]), in the assay with cancer cells (setting [2]), in the assay on cancer cells (setting [3]), in the assay on cancer cells (setting [4]) and in the assay on cancer cells (setting [5]) was > 79% in each case.
`Nc1nc(NC2Cc3ccccc3N(S(=O)(=O)c3cccc4nsnc34)C2)c2cn[nH]c2n1` (stereo not shown) [Compound 17, N4-(1-(benzo[c][1,2,5]thiadiazol-4-ylsulfonyl)-1,2,3,4-tetrahydroquinolin-3-yl)-1H-pyrazolo[3,4-d]pyrimidine-4,6-diamine]: the half-maximal inhibitory concentration (IC50) against FGFR2 (N549H) was determined as 15300 nM. For the same molecule, the inhibition at 10 µM in the assay on cancer cells (setting [1]), in the assay on cancer cells (setting [2]), with cancer cells (setting [3]), with cancer cells (setting [4]) and in the assay on cancer cells (setting [5]) was < 50% each time.
`Nc1nc(NC2Cc3ccccc3N(S(=O)(=O)c3cccc(F)c3)C2)c2cn[nH]c2n1` (stereo not shown) [Compound 18, N4-(1-(3-fluorophenylsulfonyl)-1,2,3,4-tetrahydroquinolin-3-yl)-1H-pyrazolo[3,4-d]pyrimidine-4,6-diamine] displayed an IC50 against FGFR2 (N549H) of 370 nM. The inhibition at 10 µM with cancer cells (setting [1]), with cancer cells (setting [2]), in the assay with cancer cells (setting [3]), in the assay with cancer cells (setting [4]) and in the assay with cancer cells (setting [5]) was < 50% in each case.
With `Nc1nc(NC2Cc3ccccc3N(S(=O)(=O)c3cccc(C(F)(F)F)c3)C2)c2cn[nH]c2n1` (stereo not shown) [Compound 19, N4-(1-(3-(trifluoromethyl)phenylsulfonyl)-1,2,3,4-tetrahydroquinolin-3-yl)-1H-pyrazolo[3,4-d]pyrimidine-4,6-diamine], the IC50 on FGFR2 (N549H) was 1180 nM. The inhibition at 10 µM with cancer cells (setting [1]), in the assay with cancer cells (setting [2]), in the assay on cancer cells (setting [3]), in the assay on cancer cells (setting [4]) and with cancer cells (setting [5]) was < 50% in each case.
Take `Nc1nc(NC2Cc3ccccc3N(S(=O)(=O)c3cccs3)C2)c2cn[nH]c2n1` (stereo not shown) [Compound 23, N4-(1-(thiophen-2-ylsulfonyl)-1,2,3,4-tetrahydroquinolin-3-yl)-1H-pyrazolo[3,4-d]pyrimidine-4,6-diamine]: it took 2580 nM to reach half-maximal inhibition at FGFR2 (N549H) (IC50). For the same molecule, the inhibition at 10 µM in the assay on cancer cells (setting [1]), in the assay on cancer cells (setting [2]), in the assay with cancer cells (setting [3]), with cancer cells (setting [4]) and in the assay with cancer cells (setting [5]) was < 50% in each case.
Regarding `Nc1nc(NC2Cc3ccccc3N(S(=O)(=O)c3ccccc3)C2)c2cn[nH]c2n1` (stereo not shown) [Compound 25, N4-(1-(phenylsulfonyl)-1,2,3,4-tetrahydroquinolin-3-yl)-1H-pyrazolo[3,4-d]pyrimidine-4,6-diamine], the IC50 against FGFR2 (N549H) is 340 nM. Besides, the inhibition at 10 µM in the assay on cancer cells (setting [1]), in the assay with cancer cells (setting [2]), in the assay with cancer cells (setting [3]), in the assay on cancer cells (setting [4]) and with cancer cells (setting [5]) was < 50% in each case.
On to `Nc1nc(NC2Cc3ccccc3N(S(=O)(=O)c3cccc(Cl)c3)C2)c2cn[nH]c2n1` (stereo not shown) [Compound 26, N4-(1-(3-chlorophenylsulfonyl)-1,2,3,4-tetrahydroquinolin-3-yl)-1H-pyrazolo[3,4-d]pyrimidine-4,6-diamine], for which, on FGFR2 (N549H), the half-inhibitory concentration (IC50) stood at 30 nM. For the same molecule, the inhibition at 10 µM in the assay with cancer cells (setting [1]) was > 79%; with cancer cells (setting [2]) it was > 79%; in the assay on cancer cells (setting [3]), 50 to 79%; with cancer cells (setting [4]), < 50%; in the assay with cancer cells (setting [5]), > 79%.
As to `Nc1nc(NC2Cc3ccccc3N(S(=O)(=O)c3cccc4cccnc34)C2)c2cn[nH]c2n1` (stereo not shown) [Compound 28, N4-(1-(quinolin-8-ylsulfonyl)-1,2,3,4-tetrahydroquinolin-3-yl)-1H-pyrazolo[3,4-d]pyrimidine-4,6-diamine], the concentration for half-maximal inhibition (IC50) against FGFR2 (N549H) is 21500 nM. Moreover, the inhibition at 10 µM with cancer cells (setting [1]), with cancer cells (setting [2]), with cancer cells (setting [3]), in the assay with cancer cells (setting [4]) and with cancer cells (setting [5]) was < 50% each time.
For `Nc1nc(NC2Cc3ccccc3N(S(=O)(=O)c3cccc4ccccc34)C2)c2cn[nH]c2n1` (stereo not shown) [Compound 31, N4-(1-(naphthalen-1-ylsulfonyl)-1,2,3,4-tetrahydroquinolin-3-yl)-1H-pyrazolo[3,4-d]pyrimidine-4,6-diamine], 3350 nM corresponded to half-maximal inhibition against FGFR2 (N549H) (IC50). In addition, the inhibition at 10 µM is < 50% with cancer cells (setting [1]); > 79% in the assay with cancer cells (setting [2]); < 50% in the assay on cancer cells (setting [3]); < 50% with cancer cells (setting [4]); < 50% in the assay with cancer cells (setting [5]).
For `CC(C)(C)c1ccc(S(=O)(=O)N2CC(Nc3nc(N)nc4[nH]ncc34)Cc3ccccc32)cc1` (stereo not shown) [Compound 33, N4-(1-(4-tert-butylphenylsulfonyl)-1,2,3,4-tetrahydroquinolin-3-yl)-1H-pyrazolo[3,4-d]pyrimidine-4,6-diamine], the IC50 against FGFR2 (N549H) is > 30000 nM. Further, the inhibition at 10 µM was 50 to 79% with cancer cells (setting [1]); 50 to 79% in the assay on cancer cells (setting [2]); 50 to 79% in the assay on cancer cells (setting [3]); < 50% in the assay with cancer cells (setting [4]); > 79% with cancer cells (setting [5]).
For the molecule `Nc1nc(NC2Cc3ccccc3N(Cc3ccc(F)c(F)c3)C2)c2cn[nH]c2n1` (stereo not shown) [Compound 124, N4-[1-(3,4-difluorobenzyl)-1,2,3,4-tetrahydroquinolin-3-yl]-1H-pyrazolo[3,4-d]pyrimidine-4,6-diamine], half-maximal inhibition on FGFR2 (N549H) (IC50) was put at 1330 nM.

Values taken from patent US8273754B2, “Substituted 1H-pyrazolo[3,4-D]pyrimidine-6-amine compounds” (ArQule, Inc., priority 2008, dated 2012).
